How the values were obtained:
barnyardgrass [1] = test: Test C preemergence; type: in vivo, Echinochloa crusgalli; settings: 0 to 100 scale (0 no effect, 100 complete control)
Outline: (§1)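 Test material, in non-phytotoxic solvent with surfactant, was sprayed on the soil directly after seeding (preemergence) or on young plants of 2–10 cm with one to two leaves (postemergence). Greenhouse, 10 days; 0–100 visual control scale.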

blackgrass [2] = test: Test C preemergence; type: in vivo, Alopecurus myosuroides; settings: 0 to 100 scale (0 no effect, 100 complete control)
Outline: as §1

corn [3] = test: Test C preemergence; type: in vivo, Zea mays; settings: 0 to 100 scale (0 no effect, 100 complete control)
Outline: as §1

green foxtail [4] = test: Test C preemergence; type: in vivo, Setaria viridis; settings: 0 to 100 scale (0 no effect, 100 complete control)
Outline: as §1

kochia [5] = test: Test C preemergence; type: in vivo, Bassia scoparia; settings: 0 to 100 scale (0 no effect, 100 complete control)
Outline: as §1

oat, wild [6] = test: Test C preemergence; type: in vivo, Avena fatua; settings: 0 to 100 scale (0 no effect, 100 complete control)
Outline: as §1

pigweed, palmer [7] = test: Test C preemergence; type: in vivo, Amaranthus palmeri; settings: 0 to 100 scale (0 no effect, 100 complete control)
Outline: as §1

ragweed [8] = test: Test C preemergence; type: in vivo, Ambrosia artemisiifolia; settings: 0 to 100 scale (0 no effect, 100 complete control)
Outline: as §1

soybean [9] = test: Test C preemergence; type: in vivo, Glycine max; settings: 0 to 100 scale (0 no effect, 100 complete control)
Outline: as §1

wheat [10] = test: Test C preemergence; type: in vivo, Triticum aestivum; settings: 0 to 100 scale (0 no effect, 100 complete control)
Outline: as §1

barnyardgrass [11] = test: Test C postemergence; type: in vivo, Echinochloa crusgalli; settings: 10 days
Outline: as §1

blackgrass [12] = test: Test C postemergence; type: in vivo, Alopecurus myosuroides; settings: 10 days
Outline: as §1

corn [13] = test: Test C postemergence; type: in vivo, Zea mays; settings: 10 days
Outline: as §1

green foxtail [14] = test: Test C postemergence; type: in vivo, Setaria viridis; settings: 10 days
Outline: as §1

kochia [15] = test: Test C postemergence; type: in vivo, Bassia scoparia; settings: 10 days
Outline: as §1

oat, wild [16] = test: Test C postemergence; type: in vivo, Avena fatua; settings: 10 days
Outline: as §1

pigweed, palmer [17] = test: Test C postemergence; type: in vivo, Amaranthus palmeri; settings: 10 days
Outline: as §1

ragweed [18] = test: Test C postemergence; type: in vivo, Ambrosia artemisiifolia; settings: 10 days
Outline: as §1

ryegrass, Italian = test: Test C postemergence; type: in vivo, Lolium multiflorum; settings: 10 days
Outline: as §1

soybean [19] = test: Test C postemergence; type: in vivo, Glycine max; settings: 10 days
Outline: as §1

wheat [20] = test: Test C postemergence; type: in vivo, Triticum aestivum; settings: 10 days
Outline: as §1

galium = test: Test C postemergence; type: in vivo, Galium aparine; settings: 10 days
Outline: as §1

horseweed = test: Test C postemergence; type: in vivo, Erigeron canadensis; settings: 10 days
Outline: as §1

barnyardgrass [21] = test: Test D flooded paddy test; type: in vivo, Echinochloa crus-galli; settings: 250 g ai/ha, applied to paddy water, visual rating after 13 to 14 days, scale 0 to 100 (0 no effect, 100 complete control)
Outline: (§2)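 Visual ratings from 0, meaning no effect, to 100, meaning complete control, were assigned against untreated controls 13 to 14 days after compounds were added to the floodwater of pots kept 3 cm deep, with plants at the 2-leaf stage.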

ducksalad = test: Test D flooded paddy test; type: in vivo, Heteranthera limosa; settings: 250 g ai/ha, applied to paddy water, visual rating after 13 to 14 days, scale 0 to 100 (0 no effect, 100 complete control)
Outline: as §2

rice = test: Test D flooded paddy test; type: in vivo, Oryza sativa; settings: 250 g ai/ha, applied to paddy water, visual rating after 13 to 14 days, scale 0 to 100 (0 no effect, 100 complete control)
Outline: as §2

sedge, umbrella = test: Test D flooded paddy test; type: in vivo, Cyperus difformis; settings: 250 g ai/ha, applied to paddy water, visual rating after 13 to 14 days, scale 0 to 100 (0 no effect, 100 complete control)
Outline: as §2

[22] = Preemergence, 500 g ai/ha, visual rating after 10 days
[23] = Test C, preemergence, 125 g ai/ha
[24] = 125 g ai/ha, postemergence, 0 to 100 scale, 0 no effect, 100 complete control
[25] = Postemergence, 500 g ai/ha, visual 0 to 100 scale (0 no effect, 100 complete control)

For CSCc1ncn(-c2ccc(C)c(C(=O)N3C[C@H](C)Oc4c(Cl)cccc43)c2)n1 [Compound 178], the “Plant response rating, Barnyardgrass” value (barnyardgrass [1]; [22]) was 90, the “Barnyardgrass plant response rating” value (barnyardgrass [1]; [23]) was 20 and the “Plant response rating, Blackgrass” value (blackgrass [2]; [22]) was 90. For the same molecule, the “Blackgrass plant response rating” value (blackgrass [2]; [23]) was 60, the “Plant response rating, Corn” value (corn [3]; [22]) was 50 and the “Corn plant response rating” value (corn [3]; [23]) was 20. The “Plant response rating, Foxtail, Green” value (green foxtail [4]; [22]) was 100, the “Foxtail, Green plant response rating” value (green foxtail [4]; [23]) was 100 and the “Plant response rating, Kochia” value (kochia [5]; [22]) was 100. The “Kochia plant response rating” value (kochia [5]; [23]) was 90, the “Plant response rating, Oat, Wild” value (oat, wild [6]; [22]) was 90 and the “Oat, Wild plant response rating” value (oat, wild [6]; [23]) was 30. The “Plant response rating, Pigweed, Palmer” value (pigweed, palmer [7]; [22]) was 100, the “Pigweed, Palmer plant response rating” value (pigweed, palmer [7]; [23]) was 90 and the “Plant response rating, Ragweed” value (ragweed [8]; [22]) was 50. For the same molecule, the “Ragweed plant response rating” value (ragweed [8]; [23]) was 0, the “Plant response rating, Soybean” value (soybean [9]; [22]) was 80 and the “Soybean plant response rating” value (soybean [9]; [23]) was 60. The “Plant response rating, Wheat” value (wheat [10]; [22]) was 70, the “Wheat plant response rating” value (wheat [10]; [23]) was 30 and the “Plant response rating, Barnyardgrass” value (barnyardgrass [11]; [24]) was 10. For the same molecule, the “Plant response rating, Barnyardgrass” value (barnyardgrass [11]; [25]) was 60, the “Plant response rating, Blackgrass” value (blackgrass [12]; [24]) was 60 and the “Plant response rating, Blackgrass” value (blackgrass [12]; [25]) was 90. The “Plant response rating, Corn” value (corn [13]; [24]) was 60, the “Plant response rating, Corn” value (corn [13]; [25]) was 90 and the “Plant response rating, Foxtail, Green” value (green foxtail [14]; [24]) was 20. For the same molecule, the “Plant response rating, Foxtail, Green” value (green foxtail [14]; [25]) was 90, the “Plant response rating, Kochia” value (kochia [15]; [24]) was 80 and the “Plant response rating, Kochia” value (kochia [15]; [25]) was 90. The “Plant response rating, Oat, Wild” value (oat, wild [16]; [24]) was 30, the “Plant response rating, Oat, Wild” value (oat, wild [16]; [25]) was 90 and the “Plant response rating, Pigweed, Palmer” value (pigweed, palmer [17]; [24]) was 90. For the same molecule, the “Plant response rating, Pigweed, Palmer” value (pigweed, palmer [17]; [25]) was 90, the “Plant response rating, Ragweed” value (ragweed [18]; [24]) was 60 and the “Plant response rating, Ragweed” value (ragweed [18]; [25]) was 90. The “Plant response rating, Ryegrass, Italian” value (ryegrass, Italian; [24]) was 80, the “Plant response rating, Ryegrass, Italian” value (ryegrass, Italian; [25]) was 100 and the “Plant response rating, Soybean” value (soybean [19]; [24]) was 100. The “Plant response rating, Soybean” value (soybean [19]; [25]) was 100, the “Plant response rating, Wheat” value (wheat [20]; [24]) was 20 and the “Plant response rating, Wheat” value (wheat [20]; [25]) was 50. For the same molecule, the “Plant response rating, Galium” value (galium; [24]) was 100, the “Plant response rating, Galium” value (galium; [25]) was 100 and the “Plant response rating, Horseweed” value (horseweed; [24]) was 70. For the same molecule, the “Plant response rating, Horseweed” value (horseweed; [25]) was 90, the “Plant response rating, Barnyardgrass (Flood)” value (barnyardgrass [21]) was 15 and the “Plant response rating, Ducksalad (Flood)” value (ducksalad) was 95. The “Plant response rating, Rice (Flood)” value (rice) was 15 and the “Plant response rating, Sedge, Umbrella (Flood)” value (sedge, umbrella) was 90.

Reference: patent US20260262643A1, “HERBICIDAL BENZOXAZINES” (FMC CORPORATION, priority 2022, published 2026)
